Assay results: patent US8445538B2, “Glucagon receptor antagonist compounds” (Merck Sharp & Dohme Corp., priority 2008, dated 2013)

Molecular target: T1, human glucagon receptor (Homo sapiens, UniProt P47871)
T1 construct: expressed in transfected cells; cell membranes used
Assay: Glucagon Receptor Binding Assay (125I-glucagon, SPA, CHO cell membranes)
Details: 125I-Glucagon binding to membranes of CHO cells expressing cloned human glucagon receptor; more active isomer of indicated compounds
Procedure: Glucagon Receptor Binding Assay
A stable CHO (Chinese hamster ovary) cell line expressing cloned human glucagon receptor was maintained as described (Chicchi, et. al. J Biol Chem 272, 7765-9 (1997); Cascieri, et. al. J Biol Chem 274, 8694-7 (1999)). To determine antagonistic binding affinity of compounds, 0.001-0.003 mg of cell membranes from these cells were pre-incubated with 0.100 mg WGA-coated PVT SPA beads (Amersham) for 20 minutes at room temperature in 25 μL of a buffer containing 50 mM Tris-HCl (pH 7.5), 5 mM MgCl2, 2 mM EDTA, 0.1% BSA and 3% glycerol in Costar 384 well plates with clear bottoms (#3706). Next, 25 μL of ^125I-Glucagon (New England Nuclear, Mass.) (1×10^−14 mol per well) and either 1 μL solutions of test compounds or 0.001 mM unlabeled glucagon or DMSO were added and mixed. After 4-12 hours incubation at room temperature, the radioactivity bound to the cell membranes was determined in a radioactive emission detection counter (Wallac-Microbeta). Data were analyzed using the Data Analyzer software program of Merck & Co., Inc. The IC50 values were calculated using non-linear regression analysis assuming single-site competition.

T1 sequence (P47871 26-477): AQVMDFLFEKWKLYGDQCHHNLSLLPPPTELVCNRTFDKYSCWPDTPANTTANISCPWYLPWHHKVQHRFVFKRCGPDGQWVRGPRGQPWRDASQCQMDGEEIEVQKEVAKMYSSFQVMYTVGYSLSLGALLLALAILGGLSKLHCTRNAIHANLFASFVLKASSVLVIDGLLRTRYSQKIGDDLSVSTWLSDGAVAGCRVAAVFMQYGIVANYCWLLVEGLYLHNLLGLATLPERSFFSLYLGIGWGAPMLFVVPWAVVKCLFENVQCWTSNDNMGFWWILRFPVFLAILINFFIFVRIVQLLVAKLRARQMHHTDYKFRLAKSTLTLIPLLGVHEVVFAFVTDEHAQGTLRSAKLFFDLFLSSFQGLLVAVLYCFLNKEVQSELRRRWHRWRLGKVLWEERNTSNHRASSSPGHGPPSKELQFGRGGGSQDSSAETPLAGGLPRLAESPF

SMILES | IC50 [nM]
CCC[C@H](c1ccc(C(=O)NCc2nnn[nH]2)cc1)C(c1ccc(Cl)cc1)c1ccc(F)c2ccccc12 (stereo partly drawn) [Example 55] | 4
CCCC(c1ccc(C(=O)NCCC(=O)O)cc1)C(c1ccc(C)cc1)c1ccc(F)c2ccccc12 (stereo not drawn) [Example 12] | 4.3
CCC[C@H](c1ccc(C(=O)Nc2nnn[nH]2)cc1)C(c1ccc(Cl)cc1)c1ccc(F)c2ccccc12 (stereo partly drawn) [Example 56] | 7.6
CCCC(c1ccc(C(=O)NCCC(=O)O)cc1)C(c1ccc(Cl)cc1)c1ccc2cc(SC)ccc2c1 (stereo not drawn) [Example 36] | 0.83
CCC[C@H](c1ccc(C(=O)NCCC(=O)O)cc1)C(c1ccc(Cl)cc1)c1ccc2cc(OC)ccc2c1 (stereo partly drawn) [Example 2, N-(4-{(1S)-1-[(4-chlorophenyl)(6-methoxy-2-naphthyl)methyl]butyl}benzoyl)-β-alanine] | 0.85
CCC[C@H](c1ccc(C(=O)NC[C@H](O)C(=O)O)cc1)C(c1ccc(Cl)cc1)c1ccc2cc(OC)ccc2c1 (stereo partly drawn) [Example 7, (2S)-3-[(4-{(1S)-1-[(4-chlorophenyl)(6-methoxy-2-naphthyl)methyl]butyl}benzoyl)amino]-2-hydroxypropanoic acid] | 1.7
CCC[C@H](c1ccc(C(=O)NCCS(=O)(=O)O)cc1)C(c1ccc(Cl)cc1)c1ccc(F)c2ccccc12 (stereo partly drawn) [Example 53] | 3.4
CCC[C@H](c1ccc(C(=O)NCCC(=O)O)cc1)C(c1ccc(Cl)cc1)c1ccc(F)c2ccccc12 (stereo partly drawn) [Example 1, N-(4-{(1S)-1-[(4-chlorophenyl)(4-fluoro-1-naphthyl)methyl]butyl}benzoyl)-β-alanine] | 3.3
CCC[C@H](c1ccc(C(=O)NCCC(=O)O)cc1)C(c1ccc(Cl)cc1)c1ccc2cc(C#N)ccc2c1 (stereo partly drawn) [Example 4] | 1.5
CCC[C@H](c1ccc(C(=O)NCC(F)(F)C(=O)O)cc1)C(c1ccc(Cl)cc1)c1ccc(F)c2ccccc12 (stereo partly drawn) [Example 52] | 98
CCC[C@H](c1ccc(C(=O)NCCC(=O)O)cc1)C(c1ccc(Cl)cc1)c1ccc2cc(OC(F)F)ccc2c1 (stereo partly drawn) [Example 3, N-[4-((1S)-1-{(4-chlorophenyl)[6-(difluoromethoxy)-2-naphthyl]methyl}butyl)benzoyl]-β-alanine] | 0.37
CCCC(c1ccc(C(=O)NCCC(=O)O)cc1)C(c1ccc(Cl)cc1)c1ccc(OC)c2ccc(OC)cc12 (stereo not drawn) [Example 21] | 14.2
CCCC(c1ccc(C(=O)NCCC(=O)O)cc1)C(c1ccc(Cl)cc1)c1ccc2cc(S(C)(=O)=O)ccc2c1 (stereo not drawn) [Example 37] | 2.9
CCC[C@H](c1ccc(C(=O)NCCC(=O)O)cc1)C(c1ccc(C#N)cc1)c1ccc(F)c2ccccc12 (stereo partly drawn) [Example 5, N-(4-{(1S)-1-[(4-cyanophenyl)(4-fluoro-1-naphthyl)methyl]butyl}benzoyl)-β-alanine] | 2.1
CCCC(c1ccc(C(=O)NCCC(=O)O)cc1)C(c1ccc(Cl)cc1)c1c(Cl)cc(OC)c2c(F)cccc12 (stereo not drawn) [Example 30] | 53
